Data as given in US9902934B2, “Human keratinocytes PTCH1 cell line” (GALDERMA RESEARCH & DEVELOPMENT, priority 2011, dated 2018).

Tests used:
[1] = test system: SHH/PTCH pathway; assay: Activation of PTCH1-luciferase reporter activity in SK PTCH1-Luc E6/E7 keratinocytes; format: cell-based, human; conditions: SK PTCH1-Luc E6/E7 cells, cultured 24 hours
Procedure: (§1) Purmorphamine (SMO agonist) and GDC-0449 (SMO antagonist) were diluted in DMSO at stock concentrations of 50 mM and 10 mM, respectively. To avoid side effects and toxicity, the final concentration of DMSO was fixed to 0.1% DMSO.
(§2) Lysis buffer and luciferase reagents were from the Steady-Glo® Luciferase Assay System kit (Promega, #E2520). Plates were read on a […] (TopCount, Perkin Elmer).
(§3) Experimental conditions of activation using SMO agonist of the PTCH1-Luc-E6 E7 reporter cells were first set up for optimisation. The SK PTCH1-Luc E6/E7 cells were plated in 96-well at various densities (5000 to 50000 cells/well) in opaque plates (Greiner, ref: 655083). In parallel, in order to follow cell growth, confluency, and lysis, the cell line was also seeded in transparent 96 wells plates (Greiner 655098). Serial dilutions of purmorphamine were prepared (0.2 nM<Conc.<50 μM). Results were matched with EC50 and IC50 values obtained in the SHH-Light II cell line.
Once experimental conditions optimized, SK PTCH1-Luc E6/E7 cells were plated at 45.000 cells per well, culture for 24 hours then treated for 48 hours by serial dilutions of purmorphamine. Each condition was done in duplicate and the experiment was performed at least twice. SK PTCH1-Luc E6/E7 cells responded to activation of the SHH/PTCH pathway when treated with purmorphamine and the EC50 value was determined at 1 μM (FIG. 3).

[2] = test system: SHH/PTCH pathway; assay: Inhibition of purmorphamine-induced luciferase activity in SK PTCH1-Luc E6/E7 keratinocytes; format: cell-based; conditions: Homo sapiens, Keratinocyte, SK PTCH1-Luc E6/E7 cells, co-treatment 48 hours with 2.5 μM purmorphamine (EC80)
Procedure: as §1, §2, §3
Co-treatment of SK PTCH1-Luc E6/E7 cells with purmorphamine and GDC-0449 led to the inhibition of the luciferase activity (FIG. 5). Under these circumstances, the IC50 of GDC-0449 was determined at 0.2 μM.

EC50 ([1]; Homo sapiens, Keratinocyte, 45.000 cells per well, treated 48 hours) [nM]	IC50 [2] [nM]	SMILES	effective concentration for 80% activation (EC80) ([1]; 45.000 cells/well, treated 48 hrs) [nM]
1000	–	c1ccc2c(Oc3nc(Nc4ccc(N5CCOCC5)cc4)c4ncn(C5CCCCC5)c4n3)cccc2c1 [purmorphamine, Purmorphamine]	2500
–	200	CS(=O)(=O)c1ccc(C(=O)Nc2ccc(Cl)c(-c3ccccn3)c2)c(Cl)c1 [GDC-0449]	–
